Experimental data as given in US9533983B2, “Antiplatelet agent” (Mitsubishi Tanabe Pharma Corporation, priority 2009, dated 2017).

Columns and labels:
[1] = tested on: Collagen-Induced Platelet Aggregation; assay: Platelet aggregation inhibitory activity: collagen-induced platelet aggregation in platelet rich plasma; type: cell-based; conditions: Cavia porcellus, guinea pig PRP
Method: (§1) A blood of a guinea pig was sampled by using a 1/10 volume of a 3.8% sodium citrate as a platelet aggregation inhibitor, and a platelet rich plasma (PRP) was separated by centrifuging the blood sample at 1100 rpm for 10 min. After fractionating the PRP in the upper layer, the lower layer was centrifuged at 3000 rpm for 10 min to fractionate the platelet poor plasma (PPP). To 100 μL of PRP, a 1 μL solution of each compound was added, and after still standing at 37° C. for 1 min, the mixture was stirred at 37° C. for 1 min by a stirrer. Then, 11 μL of collagen, ristocetin, or ADP was added thereto to induce the platelet aggregation. The platelet aggregation ability was measured by using the mCM hematolaser 313M (L-M-S Inc.). Based on the assumption that a light transmittance of PPP corresponds to a 100% coagulation value, an aggregation rate at each concentration of the compound was determined, then, an IC50 value was calculated therefrom.
[Platelet Aggregation Inhibitory Activities: Collagen-Induced Platelet Aggregation]

[2] = tested on: Ristocetin-Induced Platelet Aggregation; assay: Platelet aggregation inhibitory activity: ristocetin-induced platelet aggregation in platelet rich plasma; type: cell-based; conditions: Cavia porcellus, guinea pig PRP
Method: as §1
[Platelet Aggregation Inhibitory Activities: Ristocetin-Induced Platelet Aggregation]

| SMILES | IC50 [1] | IC50 [2] |
| --- | --- | --- |
| COc1ccc(-n2c(-c3cccc(F)n3)nc3cc(C(F)(F)F)ccc32)nn1 [Example 2, 2-(6-fluoropyridin-2-yl)-1-(6-methoxypyridazin-3-yl)-5-(trifluoromethyl)-1H-benzimidazole] | 180 nM | 92 nM |
| CCc1nc(-c2nc3cc(C(F)(F)F)cnc3n2-c2ccc(OC)nc2)co1 [Example 172, 2-(2-ethyl-1,3-oxazol-4-yl)-3-(6-methoxypyridin-3-yl)-6-(trifluoromethyl)-3H-imidazo[4,5-b]pyridine] | 275 nM |  |
| CN(C)c1ccc(-n2c(-c3ccccn3)nc3cc(C(F)(F)F)cnc32)cn1 [Example 6, N,N-dimethyl-5-[2-pyridin-2-yl-6-(trifluoromethyl)-3H-imidazo[4,5-b]pyridin-3-yl]pyridin-2-amine] | 257 nM |  |
| COc1ccc(-n2c(-c3csc(C)n3)nc3cc(C(F)(F)F)ccc32)nn1 [Example 94, 1-(6-methoxypyridazin-3-yl)-2-(2-methyl-1,3-thiazol-4-yl)-5-(trifluoromethyl)-1H-benzimidazole] | 190 nM | 100 nM |
| COc1ccc(-n2c(-c3cnc(C#N)cn3)nc3cc(C(F)(F)F)cnc32)cn1 [Example 8, 5-[3-(6-methoxypyridin-3-yl)-6-(trifluoromethyl)-3H-imidazo[4,5-b]pyridin-2-yl]pyrazine-2-carbonitrile] | 150 nM | 95 nM |
| COc1cnc(-n2c(-c3ccc(F)cn3)nc3cc(C(F)(F)F)cnc32)cn1 [Example 144, 2-(5-fluoropyridin-2-yl)-3-(5-methoxypyrazine-2-yl)-6-(trifluoromethyl)-3H-imidazo[4,5-b]pyridine] | 30 nM | 22 nM |
| CCc1ccc(-c2nc3cc(C(F)(F)F)ccc3n2-c2ccc(OC)nn2)nc1 [Example 56, 2-(5-ethylpyridin-2-yl)-1-(6-methoxypyridazin-3-yl)-5-(trifluoromethyl)-1H-benzimidazole] | 47 nM | 28 nM |
| COc1ccc(-n2c(-c3ccccn3)nc3cc(OCC(F)(F)F)cnc32)cn1 [Example 175, 3-(6-methoxypyridin-3-yl)-2-pyridin-2-yl-6-(2,2,2-trifluoroethoxy)-3H-imidazo[4,5-b]pyridine] | 75 nM | 75 nM |
| COc1ccc(-n2c(-c3ccc[nH]3)nc3cc(C(F)(F)F)cnc32)cn1 [Example 10, 3-(6-methoxypyridin-3-yl)-2-(1H-pyrrol-2-yl)-6-(trifluoromethyl)-3H-imidazo[4,5-b]pyridine] | 18 nM | 15 nM |
| COc1cnc(-n2c(-c3coc(C)n3)nc3cc(C(F)(F)F)cnc32)cn1 [Example 152, 3-(5-methoxypyrazine-2-yl)-2-(2-methyl-1,3-oxazol-4-yl)-(trifluoromethyl)-3H-imidazo[4,5-b]pyridine] | 86 nM | 86 nM |
| COc1cnc(-n2c(-c3cc(C)on3)nc3cc(C(F)(F)F)cnc32)cn1 [Example 154, 3-(5-methoxypyrazine-2-yl)-2-(5-methylisoxazol-3-yl)-6-(trifluoromethyl)-3H-imidazo[4,5-b]pyridine] | 129 nM | 129 nM |
| CCOc1cnc2c(c1)nc(-c1ccccn1)n2-c1ccc(OC)nc1 [Example 170, 6-ethoxy-3-(6-methoxypyridin-3-yl)-2-pyridin-2-yl-3H-imidazo[4,5-b]pyridine] | 279 nM |  |
| FC(F)(F)c1ccc2c(c1)nc(-c1ccccn1)n2-c1ccccn1 [Example 12, 1,2-Dipyridin-2-yl-5-(trifluoromethyl)-1H-benzimidazole] | 230 nM | 190 nM |
| CCCOc1cnc2c(c1)nc(-c1ccccn1)n2-c1ccc(OC)nc1 [Example 173, 3-(6-methoxypyridin-3-yl)-6-propoxy-2-pyridin-2-yl-3H-imidazo[4,5-b]pyridine] | 77 nM | 85 nM |
| COc1ccc(-n2c(-c3ccccn3)nc3cc(C4CC4)ccc32)cn1 [Example 27, 5-cyclopropyl-1-(6-methoxypyridin-3-yl)-2-pyridin-2-yl-1H-benzimidazole] | 190 nM | 170 nM |
| COc1ccc(-n2c(-c3ccccn3)nc3ccc(C(F)(F)F)cc32)cn1 [Example 19] | 10400 nM |  |
| COc1cnc(-n2c(-c3cn(C)nn3)nc3cc(C(F)(F)F)cnc32)cn1 [Example 164, 3-(5-methoxypyrazine-2-yl)-2-(1-methyl-1H-1,2,3-triazol-4-yl)-6-(trifluoromethyl)-3H-imidazo[4,5-b]pyridine] | 161 nM |  |
| Cc1ccc(-n2c(-c3ccccn3)nc3cc(C(F)(F)F)cnc32)cn1 [Example 118, 3-(6-methylpyridin-3-yl)-2-pyridin-2-yl-6-(trifluoromethyl)-3H-imidazo[4,5-b]pyridine] | 240 nM |  |
| COc1ccc(-n2c(-c3ccccn3)nc3cccnc32)cn1 [Example 49] | 15000 nM |  |

| SMILES | IC50 [1] | IC50 [2] |
| --- | --- | --- |
| COc1ccc(-n2c(-c3ccc(Br)cn3)nc3cc(C(F)(F)F)ccc32)nn1 [Example 35, 2-(5-bromopyridin-2-yl)-1-(6-methoxypyridazin-3-yl)-5-(trifluoromethyl)-1H-benzimidazole] | 44 nM |  |
| COc1ccc(-c2c3ccc(C(F)(F)F)cc3nn2-c2ccccn2)cn1 [Example 188, 3-(6-methoxypyridin-3-yl)-2-pyridin-2-yl-6-(trifluoromethyl)-2H-indazole] | 30 nM |  |
| COc1ccc(-n2c(-c3ccccn3)nc3ccccc32)cn1 [Example 23] | 4470 nM |  |
| CNc1ccc(-n2c(-c3ccccn3)nc3cc(C(F)(F)F)cnc32)cn1 [Example 5, N-methyl-5-[2-pyridin-2-yl-6-(trifluoromethyl)-3H-imidazo[4,5-b]pyridin-3-yl]pyridin-2-amine] | 89 nM |  |
| COc1cnc(-n2c(-c3ccccn3)cc3cc(C(F)(F)F)cnc32)cn1 [Example 187, 1-(5-methoxypyrazine-2-yl)-2-pyridin-2-yl-5-(trifluoromethyl)-1H-pyrrolo[2,3-b]pyridine] | 40 nM |  |
| COc1ccc(-n2c(-c3cn(C)nn3)nc3cc(C(F)(F)F)ccc32)nn1 [Example 163, 1-(6-methoxypyridazin-3-yl)-2-(1-methyl-1H-1,2,3-triazol-4-yl)-5-(trifluoromethyl)-1H-benzimidazole] | 125 nM |  |
| CNc1ccc(-n2c(-c3ccc(F)cn3)nc3cc(C(F)(F)F)cnc32)cn1 [Example 149, 5-[2-(5-fluoropyridin-2-yl)-6-(trifluoromethyl)-3H-imidazo[4,5-b]pyridin-3-yl]-N-methylpyridin-2-amine] | 230 nM |  |
| COc1cnc(-n2c(-c3cscn3)nc3cc(C(F)(F)F)cnc32)cn1 [Example 148, 3-(5-methoxypyrazine-2-yl)-2-(1,3-thiazol-4-yl)-6-(trifluoromethyl)-3H-imidazo[4,5-b]pyridine] | 81 nM |  |
| COc1cnc(-n2c(-c3cnc(C#N)cn3)nc3cc(C(F)(F)F)cnc32)cn1 [Example 157] | 74 nM |  |
| COc1ccc(-n2c(-c3ccccn3)nc3cc(OCC4CC4)cnc32)cn1 [Example 171, 6-(cyclopropylmethoxy)-3-(6-methoxypyridin-3-yl)-2-pyridin-2-yl-3H-imidazo[4,5-b]pyridine] | 91 nM |  |
| COc1ccc(-n2c(-c3ccccn3)nc3c(C(F)(F)F)cccc32)cn1 [Example 37] | 2380 nM |  |
| COc1ccc(-n2c(-c3cc(C)on3)nc3cc(OC(F)(F)F)ccc32)nn1 [Example 168, 1-(6-methoxypyridazin-3-yl)-2-(5-methylisoxazol-3-yl)-5-(trifluoromethoxy)-1H-benzimidazole] | 259 nM |  |
| COc1cnc(-n2c(-c3cnn(C)c3)nc3cc(C(F)(F)F)cnc32)cn1 [Example 165, 3-(5-methoxypyrazine-2-yl)-2-(1-methyl-1H-pyrazol-4-yl)-6-(trifluoromethyl)-3H-imidazo[4,5-b]pyridine] | 203 nM |  |
| COc1ccc(-c2c(-c3ccc(F)cn3)nc3cc(C(F)(F)F)ccn23)cn1 [Example 191, 2-(5-fluoropyridin-2-yl)-3-(6-methoxypyridin-3-yl)-7-(trifluoromethyl)imidazo[1,2-a]pyridine] | 790 nM |  |
| COc1ccc(-c2c(-c3ccccn3)nc3cc(C(F)(F)F)ccn23)cn1 [Example 190, 3-(6-methoxypyridin-3-yl)-2-pyridin-2-yl-7-(trifluoromethyl)imidazo[1,2-a]pyridine] | 218 nM |  |
| COc1cnc(-n2c(-c3ccccn3)nc3cc(C(F)(F)F)ccc32)cn1 [Example 161, 1-(5-methoxypyrazine-2-yl)-2-pyridin-2-yl-5-(trifluoromethyl)-1H-benzimidazole] | 268 nM |  |
| COc1cnc(-n2c(-c3ccn(C)n3)nc3cc(C(F)(F)F)cnc32)cn1 [Example 153, 3-(5-methoxypyrazine-2-yl)-2-(1-methyl-1H-pyrazol-3-yl)-6-(trifluoromethyl)-3H-imidazo[4,5-b]pyridine] | 291 nM |  |
| COc1ccc(-n2c(-c3cnn(C)c3)nc3cc(OC(F)(F)F)ccc32)nn1 [Example 166, 1-(6-methoxypyridazin-3-yl)-2-(1-methyl-1H-pyrazol-4-yl)-5-(trifluoromethoxy)-1H-benzimidazole] | 316 nM |  |
| COc1ccc(-n2c(-c3ccn(C)n3)nc3cc(OC(F)(F)F)ccc32)nn1 [Example 156, 1-(6-methoxypyridazin-3-yl)-2-(1-methyl-1H-pyrazol-3-yl)-5-(trifluoromethoxy)-1H-benzimidazole] | 76 nM |  |
